Entries after “also recorded” stand apart in the source; their conditions may differ. Where two headings read alike, the source gives them in different places. Starred links: 1 amine or outer side, 2 acyl side, 3 side chain; linkers in the order of their positions; H or OH if unused. Positions of bridges follow the written chain, without caps; N, C: chain ends. Non-standard residues stand in square brackets, D forms with d. Residues, ends and D or L forms follow the SMILES beside them. Chains are numbered I, II in the order given. Actinocin(9to1) = Cc1c2oc3c(C)ccc(C(=O)[*:1])c3nc-2c(C(=O)[*:2])c(N)c1=O; NMeV = CN[C@H](C(=O)O)C(C)C; Sar = CNCC(=O)O
Columns and labels:
[1] = share of drug bound in a protein-containing solution; cited from earlier work
patients = conditions: cited from earlier work
neoplastic lung disease = tested on: neoplastic lung disease; set-up: species or system dogs; conditions: dog, in vivo
[2] = tested on: gross metastatic disease, micrometastatic hemangiosarcoma or micrometastatic primary lung cancer; set-up: species or system dogs; conditions: dog, in vivo
healthy animals = conditions: in vivo; cited from earlier work
rats = conditions: rat, in vivo
[3] = tested on: 68-2 Adenocarcinoma Cells
mice = conditions: intraperitoneal pretreatment, bleomycin subcutaneous; cited from earlier work
[4] = dog, in vivo

Question: For `Nc1ccn([C@@H]2O[C@H](CO)[C@@H](O)[C@@H]2O)c(=O)n1` [cytarabine], which Protein binding affinity [1] is on record?
Answer: The Protein binding affinity was 13%.

Question: Which “Pulmonary toxicity of the IV administered drug” value (“Pulmonary toxicity” for short) (patients) does the source give for `CC(=O)O[C@H]1C(=O)[C@@]2(C)[C@H]([C@H](OC(=O)c3ccccc3)[C@]3(O)C[C@H](OC(=O)[C@H](O)[C@@H](NC(=O)c4ccccc4)c4ccccc4)C(C)=C1C3(C)C)[C@]1(OC(C)=O)CO[C@@H]1C[C@@H]2O` [Taxol, Paclitaxel] here?
Answer: The value was “pulmonary toxicity is not listed”.

Question: And the Results (neoplastic lung disease)?
Answer: Its Results is “SD (4 weeks) lung; also recorded: PD lung, Rx discontinued”.

Question: And the “Outcome after inhalation treatment” value [2]?
Answer: Its value is “no evidence of disease”.

Question: What about the Results [2] of the same compound?
Answer: The Results was “SD (PR after; also recorded: PD (PR noted; also recorded: Alive and NED”.

Question: For `COc1cc([C@@H]2c3cc4c(cc3[C@@H](O[C@@H]3O[C@@H]5CO[C@@H](C)O[C@H]5[C@H](O)[C@H]3O)[C@H]3COC(=O)[C@H]23)OCO4)cc(OC)c1O` [Etoposide, etoposide], which “Pulmonary toxicity” value (patients) is on record?
Answer: Its value is “no indication of pulmonary toxicity”.

Question: Which “Pulmonary toxicity” value (patients) does the source give for `CCc1c2c(nc3ccc(OC(=O)N4CCC(N5CCCCC5)CC4)cc13)-c1cc3c(c(=O)n1C2)COC(=O)[C@]3(O)CC` [Irinotecan] here?
Answer: The value was “no mention is made of pulmonary toxicity”.

Question: With `O=P1(N(CCCl)CCCl)NCCCO1` (stereo not drawn) [CTX] as the compound, how does the Results (neoplastic lung disease) read?
Answer: Its Results is “SD lung”.

Question: For `CO[C@@]12[C@H](COC(N)=O)C3=C(C(=O)C(C)=C(N)C3=O)N1C[C@@H]1N[C@@H]12` [Mutamycin, mitomycin], which “Toxic effects to the respiratory tract” value (healthy animals) is on record?
Answer: The value was “the most severe results”.

Question: For `CC(=O)[C@]1(O)Cc2c(O)c3c(c(O)c2[C@@H](O[C@H]2C[C@H](N)[C@H](O)[C@H](C)O2)C1)C(=O)c1ccccc1C3=O` [Idarubicin], which “Pulmonary toxicity” value (patients) is on record?
Answer: Its value is “no mention is made of pulmonary toxicity”.

Question: For `CC[C@]1(O)C[C@H]2CN(CCc3c([nH]c4ccccc34)[C@@](C(=O)OC)(c3cc4c(cc3OC)N(C=O)[C@H]3[C@@](O)(C(=O)OC)[C@H](OC(C)=O)[C@]5(CC)C=CCN6CC[C@]43[C@@H]65)C2)C1` [Vincristine, vincristine], which “Pulmonary toxicity” value (patients) is on record?
Answer: Its value is “no pulmonary toxicity noted”.

Question: For carboplatin, which “Tolerated dose when given by inhalation” value (rats) is on record?
Answer: The value was “up to 1.9 mg/m^2”.

Question: What about the “Mean Lung Weight” value ([3]; Group 2, IV 180 mg/m^2, Day 61) of the same compound?
Answer: Its value is 1.37 ± 0.16 g.

Question: And the “Mean Percentage of Lung W/Tumors” value ([3]; Group 2, IV 180 mg/m^2, Day 61)?
Answer: The value was 10 ± 0%.

Question: What about the “Mean Lung Weight” value ([3]; Group 3, IV 300 mg/m^2, Day 61) of the same compound?
Answer: Its value is 1.37 ± 0.11 g.

Question: What about the “Mean Percentage of Lung W/Tumors” value ([3]; Group 3, IV 300 mg/m^2, Day 61) of the same compound?
Answer: The value was 10 ± 0%.

Question: And the “Lung covered by tumor” value ([3]; rat, IV 180 or 300 mg/m^2, Day 61)?
Answer: Its value is 10%.

Question: What about the “Average lung and lung tumor weight” value ([3]; rat, both low (180 mg/m^2) and high (300 mg/m^2) dose, Day 61) of the same compound?
Answer: The value was 1.37 gram.

Question: With `C[C@@H](CN1CC(=O)NC(=O)C1)N1CC(=O)NC(=O)C1` [dexrazoxane] as the compound, how does the “Protection against bleomycin-induced pulmonary damage” value (mice) read?
Answer: Its value is “reduced pulmonary alterations particularly fibrosis”.

Question: For `Cc1c2oc3c(C)ccc(C(=O)N[C@@H]4C(=O)N[C@H](C(C)C)C(=O)N5CCC[C@H]5C(=O)N(C)CC(=O)N(C)[C@@H](C(C)C)C(=O)O[C@@H]4C)c3nc-2c(C(=O)N[C@@H]2C(=O)N[C@H](C(C)C)C(=O)N3CCC[C@H]3C(=O)N(C)CC(=O)N(C)[C@@H](C(C)C)C(=O)O[C@@H]2C)c(N)c1=O` [Dactinomycin] (I: T[dV]P[Sar][NMeV] / II: T[dV]P[Sar][NMeV]; ester I:1-I:C, II:1-II:C; linker I:N-II:N via Actinocin(9to1)), which “Pulmonary toxicity” value (patients) is on record?
Answer: The value was “no mention is made of pulmonary toxicity”.

Question: Which “Clearance from the lung after pulmonary administration” value [4] does the source give for `COc1cccc2c1C(=O)c1c(O)c3c(c(O)c1C2=O)C[C@@](O)(C(=O)CO)C[C@@H]3O[C@H]1C[C@H](N)[C@H](O)[C@H](C)O1` [Doxorubicin, doxorubicin] here?
Answer: The value was “not rapidly cleared from the lung”.

Question: What about the “Damage to the respiratory tract at necropsy” value [4] of the same compound?
Answer: The value was “no damage to the respiratory tract was observed”.

Question: What about the “Peak blood levels following inhalation exposure compared with IV” value [4] of the same compound?
Answer: The value was “over an order of magnitude lower”.

Question: And the “Systemic doxorubicin level after about 4 hours, IV relative to pulmonary route” value [4]?
Answer: Its value is “about six times higher”.

Question: And the “Initial plasma concentration at 2 minutes, IV relative to pulmonary route” value ([4]; iv, 1 mg/kg)?
Answer: The value was “about 1.5 orders of magnitude”.

Question: And the “Pulmonary toxicity” value (patients)?
Answer: Its value is “no indication of pulmonary toxicity”.

Question: And the “Development of lung metastases” value (neoplastic lung disease)?
Answer: Its value is “no metastases developed in the lung for four months”.

Question: And the “Outcome after inhalation treatment” value [2]?
Answer: The value was “alive with no evidence of disease 81 days later”.

Question: And the “Disease in the lung” value ([2]; iv)?
Answer: Its value is “no evidence of disease in the lung”.

Question: For `O=P1(N(CCCl)CCCl)NCCCO1` (stereo not drawn) [Cyclophosphamide, cyclophosphamide], which “Toxic effects to the respiratory tract” value (healthy animals) is on record?
Answer: Its value is “only mild inflammation”.

Source: US6451784B1 (priority 1996, dated 2002)
